Laboratory results: patent publication US10898542B2, “Topical compositions comprising OB-fold variants” (AFFILOGIC, priority 2013, dated 2021)

Columns and labels:
[1] = Penetration through rabbit cornea in reaction chambers; format: in vitro ADME; conditions: male, Fauve de Bourgogne, 37° C., sampling 0 h, 2 h and 4 h, 0.5 cm^2, read-out: apparent permeability
Procedure: Three male rabbits (Fauve de Bourgogne) were used.
The principle is the same as for the skin permeability.
3 ml of formulation containing each nanofitin were placed on the donor side of the reaction chambers and 3 ml of PBS were placed on the receiver side. Freshly taken corneal tissues were placed between the two half-chambers.
The temperature was maintained at 37° C. throughout the study and the oxygenation was provided by continuous perfusion of carbogen (95% O2, 5% CO2). The exchange surface area was 0.5 cm^2.
At each following sampling period: 0 h, 2 h and 4 h, 500 μl of liquid were taken from the receiver side and replaced with PBS. • 100 μl of liquid were taken from the donor side and were not replaced.
At the end of the sampling period, the 0.5 cm^2 of corneas were removed from the reaction chamber and scraped with a scalpel. 1 ml of PBS was added to the samples, which were homogenized.

[2] = Franz cell diffusion test, penetration through human skin ex vivo; format: in vitro ADME; conditions: human skin 1 mm, 100 μl at 5 mg/ml, 24 h, PBS pH 7.4 receiver, 2 cm^2
From the text: The test used is the Franz cell diffusion test.
Franz cells are used to determine, ex vivo, the skin penetration of exogenous substances, and to actually measure the speed of passage through the various layers of the skin barrier of the molecules constituting the active ingredient deposited at the surface of the skin.
A solution containing the molecule to be studied is deposited in a “donor” department of the device. The molecule then diffuses through a membrane (in the case in point the skin) and is collected in a “receiver” compartment.
In practice, after having removed the hypodermal layer (adipose tissue), the skin fragment is deposited on a diffusion cell, called a Franz cell. The deep face of the dermis is in contact with a receiver solution which is supposed to replace the interstitial fluid of the skin. A solution containing the molecule studied is deposited on top of the skin. […]
The nanofitin concentration was measured on each of the samples taken, using the BioLayer Interferometry technology which makes it possible to measure the interaction between two proteins. In the case in point, the nanofitin content is measured by the recognition of a poly-Histidine tag which is coupled to said nanofitins beforehand.

[3] = system: skin inflammation similar to psoriasis caused by imiquimod (Aldara); assay: Imiquimod-induced psoriasis-type ear inflammation, topical treatment, PASI score; format: in vivo, Balb/c mice; conditions: cream on right ear; mice licked their ears, systemic effect after ingestion very probable
Procedure: In order to verify the skin penetration of nanofitins and the preservation of their properties, in particular their property of neutralizing the receptor-ligand relationship, inflammation models of psoriasis type were used and the reduction in inflammation (PASI score) after topical administration of anti-inflammatory nanofitins directly to the skin was measured.
These nanofitins target two different cytokines involved in psoriasiform inflammation, but with different localizations, from the basal layers of the dermis just into the epidermis (Nestle et al., Nature Reviews Immunology 9, 679-691, 2009). The nanofitins in question neutralize the binding of the targeted cytokines with their receptor. In order to inhibit the action of these cytokines during inflammation of psoriasis type, it is necessary to reach the layers where they are located, either systemically as therapeutic antibodies do, or topically via the skin. The measurement of an anti-inflammatory effect by topical administration of nanofitins thus attests to penetration of the nanofitins through the skin and to an associated therapeutic efficacy.
The local application of imiquimod (Aldara) to the internal face of the ears of mice causes a skin inflammation similar to psoriasis (Van der Fits et al., J Immunol. 2009 May 1; 182(9):5836-45, Flutter et al., Eur J Immunol. 2013 December; 43(12):3138-46). […]

CCn1cc(C(=O)O)c(=O)c2cc(F)c(N3CCNCC3)cc21 [norfloxacin]
Papp at 4 h [1]: 11 ×10⁻⁶ cm/s

Cn1c(=O)c2c(ncn2C)n(C)c1=O [caffeine]
percentage found on the receiver side (skin permeability) [2]: ~10%

C[C@H]1C[C@H]2[C@@H]3CCC4=CC(=O)C=C[C@]4(C)[C@@]3(F)[C@@H](O)C[C@]2(C)[C@@]1(O)C(=O)CCl [clobetazole]
inflammation on the nontreated left ear [3]: reduction in the inflammation on the nontreated left ear
